One experiment concerns the target HIV integrase (Human immunodeficiency virus type 1 group M subtype B, UniProt P04585). Nature of the experiment: biochemical.
In a further experiment the test system is HIV-IIIb. In words: Antiviral assay in MT-4 cells infected with HIV-IIIb. In kind it is cell-based. As to conditions: MT4, 120 h; MT-4 cells, HIV-IIIb, 5 days; read-out: EC50 Range MT-4. On the procedure: See: Wolfe, etal J. Virol.
Antiviral Assays in MT2 and MT4 Cells
For the antiviral assay utilizing MT-2 cells, 50 μl of 2× test concentration of 5-fold serially diluted compound in culture medium with 10% FBS was added to each well of a 96-well plate (9 concentrations) in triplicate. MT-2 cells were infected with HIV-IIIb at a multiplicity of infection (m.o.i) of 0.01 for 3 hours. Fifty microliters of infected cell suspension in culture medium with 10% FBS (˜1.5×10^4 cells) was then added to each well containing 50 μl of diluted compound. The plates were then incubated at 37° C. for 5 days. For the antiviral assay utilizing MT-4 cells, 20 μl of 2× test concentration of 5-fold serially diluted compound in culture medium with 10% FBS was added to each well of a 384-well plate (7 concentrations) in triplicate. MT-4 cells were next mixed with HIV-IIIb at an m.o.i. of 0.1 and 20 μl of virus/cell mixture (˜2000 cells) was immediately added to each well containing 20 μl of diluted compound. The plates were then incubated at 37° C. for 5 days. After 5 days of incubation, 100 μl of CellTiter-Glo™ Reagent (catalog # G7571, Promega Biosciences, Inc., Madison, Wis.) was added to each well containing MT-2 cells and 40 μl to each well containing MT-4 cells. Cell lysis was carried out by incubating at room temperature for 10 min and then chemiluminescence was read.

The term IC50 denotes the concentration that gives 50% inhibition. The low end stands for higher potency, the high end for lower potency. By EC50 is commonly meant the concentration giving half of the maximal effect. Regarding `CC(C)C(=O)N(C)c1c2c(c(O)c3ncccc13)C(=O)N(Cc1ccc(F)cc1)C2` [Compound 69, N-(7-(4-fluorobenzyl)-9-hydroxy-8-oxo-7,8-dihydro-6H-pyrrolo[3,4-g]quinolin-5-yl)-N-methylisobutyramide], on HIV integrase, the IC50 is less than 60 nM. In addition, the EC50 in the experiment with HIV-IIIb is less than 60 nM.

Compound `CN(c1c2c(c(O)c3ncccc13)C(=O)N(Cc1ccc(F)cc1)C2(C)C)S(C)(=O)=O` [Compound 71, N-(7-(4-fluorobenzyl)-9-hydroxy-6,6-dimethyl-8-oxo-7,8-dihydro-6H-pyrrolo[3,4-g]quinolin-5-yl)-N-methylmethanesulfonamide] returned an IC50 on HIV integrase of 60 to 1000 nM. Further, the EC50 in the experiment on HIV-IIIb was less than 60 nM.

In turn, `CCN(c1c2c(c(O)c3ncccc13)C(=O)N(Cc1ccc(F)cc1)C2)S(C)(=O)=O` [Compound 78, N-ethyl-N-(7-(4-fluorobenzyl)-9-hydroxy-8-oxo-7,8-dihydro-6H-pyrrolo[3,4]quinolin-5-yl)methanesulfonamide] registered an IC50 on HIV integrase of less than 60 nM. In the experiment with HIV-IIIb, the EC50 was less than 60 nM.

On HIV integrase, `CNC(=O)c1cc(F)ccc1CN1Cc2c(c(O)c3ncccc3c2N(C)S(C)(=O)=O)C1=O` [Compound 88] yielded an IC50 of 60 to 1000 nM. Moreover, the EC50 with HIV-IIIb is less than 60 nM.

The compound `CN(C)C(=O)c1cc(F)ccc1CN1Cc2c(c(O)c3ncccc3c2N(C)S(C)(=O)=O)C1=O` [Compound 90, 5-fluoro-2-((9-hydroxy-5-(N-methylmethylsulfonamido)-8-oxo-6H-pyrrolo[3,4-g]quinolin-7(8H)-yl)methyl)-N,N-dimethylbenzamide] returned an IC50 against HIV integrase of 60 to 1000 nM. Also, the EC50 in the experiment on HIV-IIIb is less than 60 nM.

Compound `CN(c1c2c(c(O)c3ncccc13)C(=O)N(Cc1ccncc1)C2)S(C)(=O)=O` [Compound 92, N-(9-hydroxy-8-oxo-7-(pyridin-4-ylmethyl)-7,8-dihydro-6H-pyrrolo[3,4-g]quinolin-5-yl)-N-methylmethanesulfonamide] came in with an IC50 against HIV integrase of more than 1000 nM. Moreover, the EC50 in the experiment with HIV-IIIb was more than 1000 nM.

`CN(c1c2c(c(O)c3ncccc13)C(=O)N(Cc1ccccn1)C2)S(C)(=O)=O` [Compound 94, N-(9-hydroxy-8-oxo-7-(pyridin-2-ylmethyl)-7,8-dihydro-6H-pyrrolo[3,4-g]quinolin-5-yl)-N-methylmethanesulfonamide] registered an IC50 against HIV integrase of 60 to 1000 nM. Besides, the EC50 in the experiment with HIV-IIIb is less than 60 nM.

On to `CN(c1c2c(c(O)c3ncccc13)C(=O)N(Cc1ccc(F)nc1)C2)S(C)(=O)=O` [Compound 97, N-(7-((6-fluoropyridin-3-yl)methyl)-9-hydroxy-8-oxo-7,8-dihydro-6H-pyrrolo[3,4-g]quinolin-5-yl)-N-methylmethanesulfonamide], for which the IC50 on HIV integrase lay in the range of 60 to 1000 nM. In the experiment on HIV-IIIb, the EC50 was 60 to 1000 nM.

Regarding `CN(c1c2c(c(O)c3ncccc13)C(=O)N(Cc1ccc(F)cc1C#N)C2)S(C)(=O)=O` [Compound 100, N-(7-(2-cyano-4-fluorobenzyl)-9-hydroxy-8-oxo-7,8-dihydro-6H-pyrrolo[3,4-g]quinolin-5-yl)-N-methylmethanesulfonamide], on HIV integrase, the IC50 is 60 to 1000 nM. The 50% effective concentration (EC50) in the experiment with HIV-IIIb is 60 to 1000 nM.

Compound `CN(c1c2c(c(O)c3ncccc13)C(=O)N(Cc1ccc(F)cc1N)C2)S(C)(=O)=O` [Compound 103, N-(7-(2-amino-4-fluorobenzyl)-9-hydroxy-8-oxo-7,8-dihydro-6H-pyrrolo[3,4-g]quinolin-5-yl)-N-methylmethanesulfonamide] returned an IC50 against HIV integrase of less than 60 nM. Also, the EC50 with HIV-IIIb was less than 60 nM.

For the compound `CN(c1c2c(c(O)c3ncccc13)C(=O)N(Cc1ccc(F)cc1S(C)(=O)=O)C2)S(C)(=O)=O` [Compound 106, N-(7-(4-fluoro-2-(methylsulfonyl)benzyl)-9-hydroxy-8-oxo-7,8-dihydro-6H-pyrrolo[3,4-g]quinolin-5-yl)-N-methylmethanesulfonamide], on HIV integrase, the IC50 was 60 to 1000 nM. Also, in the experiment on HIV-IIIb, the EC50 was less than 60 nM.

In the case of `CN(c1c2c(c(O)c3ncccc13)C(=O)N(Cc1ccc(F)cc1S(=O)(=O)N(C)C)C2)S(C)(=O)=O` [Compound 109, 5-fluoro-2-((9-(hydroxy)-5-(N-methylmethylsulfonamido)-8-oxo-6H-pyrrolo[3,4-g]quinolin-7(8H)-yl)methyl)-N,N-dimethylbenzenesulfonamide], on HIV integrase, the IC50 lay within 60 to 1000 nM. For the same compound, the EC50 in the experiment on HIV-IIIb was less than 60 nM.

The compound `CCOC(=O)N(C)c1c2c(c(O)c3ncccc13)C(=O)N(Cc1ccc(F)cc1)C2` [Compound 112, ethyl 7-(4-fluorobenzyl)-9-(hydroxy)-8-oxo-7,8-dihydro-6H-pyrrolo[3,4-g]quinolin-5-yl(methyl)carbamate] registered an IC50 on HIV integrase of less than 60 nM. Besides, the EC50 with HIV-IIIb is less than 60 nM.

Regarding `CCOC(=O)N(C)c1c2c(c(O)c3ncccc13)C(=O)N(Cc1ccc(F)cc1)C2C` (centres unmarked) [Compound 114, ethyl 7-(4-fluorobenzyl)-9-hydroxy-6-methyl-8-oxo-7,8-dihydro-6H-pyrrolo[3,4-g]quinolin-5-yl(methyl)carbamate], the IC50 at HIV integrase is 60 to 1000 nM. The EC50 with HIV-IIIb lay in the range of 60 to 1000 nM.

On HIV integrase, `CCOC(=O)N(C)c1c2c(c(O)c3ncccc13)C(=O)N(Cc1ccc(F)cc1)C2(C)C` [Compound 115, ethyl 7-(4-fluorobenzyl)-9-hydroxy-6,6-dimethyl-8-oxo-7,8-dihydro-6H-pyrrolo[3,4-g]quinolin-5-yl(methyl)carbamate] came in with an IC50 of 60 to 1000 nM. For the same compound, the EC50 in the experiment on HIV-IIIb is more than 1000 nM.

For `CS(=O)(=O)Nc1c2c(c(O)c3ncccc13)C(=O)N(Cc1ccc(F)cc1)C2` [Compound 125, N-(7-(4-fluorobenzyl)-9-hydroxy-8-oxo-7,8-dihydro-6H-pyrrolo[3,4-g]quinolin-5-yl)methanesulfonamide], the IC50 against HIV integrase was less than 60 nM. The half-maximal effective concentration (EC50) with HIV-IIIb fell in the range of 60 to 1000 nM.

`CN(c1c2c(c(O)c3ncccc13)C(=O)N(Cc1ccc(F)cc1)C2)S(N)(=O)=O` [Compound 132, N-(7-(4-fluorobenzyl)-9-hydroxy-8-oxo-7,8-dihydro-6H-pyrrolo[3,4-g]quinolin-5-yl)-N-methylsulfamide] yielded an IC50 at HIV integrase of less than 60 nM. Further, the EC50 in the experiment with HIV-IIIb is less than 60 nM.

On HIV integrase, `CN(Cc1ccccc1)S(=O)(=O)N(C)c1c2c(c(O)c3ncccc13)C(=O)N(Cc1ccc(F)cc1)C2` [Compound 135, N′-benzyl-N′-methyl-N-(7-(4-fluorobenzyl)-9-hydroxy-8-oxo-7,8-dihydro-6H-pyrrolo[3,4-g]quinolin-5-yl)-N-methylsulfamide] had an IC50 of 60 to 1000 nM. In addition, the EC50 with HIV-IIIb was 60 to 1000 nM.

In turn, `CN(Cc1ccncc1)S(=O)(=O)N(C)c1c2c(c(O)c3ncccc13)C(=O)N(Cc1ccc(F)cc1)C2` [Compound 136, N-(7-(4-fluorobenzyl)-9-hydroxy-8-oxo-7,8-dihydro-6H-pyrrolo[3,4-g]quinolin-5-yl)-N-methyl-N′-methyl-N′-(pyridin-4-ylmethyl)sulfamide] had an IC50 on HIV integrase of 60 to 1000 nM. In the experiment on HIV-IIIb, the EC50 is 60 to 1000 nM.

Take `COc1ccc(CN2Cc3c(c(O)c4ncccc4c3N(C)S(C)(=O)=O)C2=O)c(OC)c1` [Compound 143, N-(7-(2,4-dimethoxybenzyl)-9-hydroxy-8-oxo-7,8-dihydro-6H-pyrrolo[3,4-g]quinolin-5-yl)-N-methylmethanesulfonamide]: the IC50 on HIV integrase lay within 60 to 1000 nM. The EC50 with HIV-IIIb was 60 to 1000 nM.

`CN(c1c2c(c(O)c3ncccc13)C(=O)N(Cc1ccc(F)cc1F)C2)S(C)(=O)=O` [Compound 145, N-(7-(2,4-difluorobenzyl)-9-hydroxy-8-oxo-7,8-dihydro-6H-pyrrolo[3,4-g]quinolin-5-yl)-N-methylmethanesulfonamide]: the IC50 on HIV integrase was less than 60 nM. In addition, the EC50 in the experiment with HIV-IIIb is less than 60 nM.

As for `CN(c1c2c(c(O)c3ncccc13)C(=O)N(Cc1ccc(F)cc1Cl)C2)S(C)(=O)=O` [Compound 147, N-(7-(2-chloro-4-fluorobenzyl)-9-hydroxy-8-oxo-7,8-dihydro-6H-pyrrolo[3,4-g]quinolin-5-yl)-N-methylmethanesulfonamide], the half-inhibitory concentration (IC50) at HIV integrase is less than 60 nM. Also, the EC50 with HIV-IIIb was less than 60 nM.

`CN(c1c2c(c(O)c3ncccc13)C(=O)N(Cc1ccc(F)cn1)C2)S(C)(=O)=O` [Compound 151, N-(7-((5-fluoropyridin-2-yl)methyl)-9-hydroxy-8-oxo-7,8-dihydro-6H-pyrrolo[3,4-g]quinolin-5-yl)-N-methylmethanesulfonamide] had an IC50 against HIV integrase of 60 to 1000 nM. Besides, in the experiment on HIV-IIIb, the EC50 was 60 to 1000 nM.

As for `CN(c1c2c(c(O)c3ncccc13)C(=O)N(Cc1ccc(F)cc1)C2=O)S(C)(=O)=O` [Compound 152, N-(7-(4-fluorobenzyl)-9-hydroxy-6,8-dioxo-7,8-dihydro-6H-pyrrolo[3,4-g]quinolin-5-yl)-N-methylmethanesulfonamide], the IC50 at HIV integrase was less than 60 nM. Further, the EC50 with HIV-IIIb is more than 1000 nM.

`CN(C)c1cccc2c(S(=O)(=O)N(C)c3c4c(c(O)c5ncccc35)C(=O)N(Cc3ccc(F)cc3)C4)cccc12` [Compound 154, 5-(dimethylamino)-N-(7-(4-fluorobenzyl)-9-hydroxy-8-oxo-7,8-dihydro-6H-pyrrolo[3,4-g]quinolin-5-yl)-N-methylnaphthalene-1-sulfonamide]: on HIV integrase, the IC50 lay in the range of 60 to 1000 nM. In addition, the EC50 in the experiment with HIV-IIIb is more than 1000 nM.

The values above are taken from patent publication US20070072831A1, “Integrase inhibitor compounds” (GILEAD SCIENCES, INC., priority 2005, published 2007).
